# Test results reported in PMC8359193, “Summary of reference chemicals evaluated by the fish short‐term reproduction assay, OECD TG229, using Japanese Medaka, Oryzias latipes” (Journal of Applied Toxicology, 2021).
# Assays:
# [1] = test system: Japanese medaka (Oryzias latipes); assay: Fish short-term reproduction assay (FSTRA, OECD TG229), 21-day flow-through exposure; conditions: for Fertility rate (%) / Mortality (%) Female / Mortality (%) Male / Number of fertilized eggs / Number of total eggs / SSC Female / SSC Male / VTG (ng/mg of liver) Female / VTG (ng/mg of liver) Male: 21 days; for GSI Female / GSI Male / HSI Female / HSI Male / Length Female / Length Male / Weight Female / Weight Male: at completion of exposure
# Method: The experimental studies on the FSTRA for the 16 chemicals were conducted in two laboratories in Japan, the National Institute for Environmental Studies (NIES, Lab‐1) and the Institute of Environmental Ecology, IDEA Consultants Inc. (Lab‐2), in accordance with OECD TG229 (OECD, [2012a]) (Table 1).
# The NIES‐R strain of Japanese medaka (O. latipes), one of the orange‐red varieties, was used in all the 16 chemical studies. For the studies, healthy and mature male and female medakas at 16 ± 2 weeks old were selected from a single‐stock population, which were bred within the test facilities. The test fish were maintained in conditions similar to the assay for at least 7 days, and spawning status was checked during the acclimation period. On the day the chemical exposure commenced, to ensure balanced distribution of test fish between the treatment groups for the reproductive status of the fish, the replicate vessels (fish tanks), with each containing three male and female medaka, were distributed to each treatment and control group, for example, by a randomized block design based on the number of fertilized eggs laid in the last 5–7 days during the acclimation, in each assay.
# The water solubility of the test chemical was also taken into consideration when deciding the highest test concentration. To set the lower concentrations, a spacing factor ranging between two and five was used. All assays included a dilution water control (DWC).
# Test solutions at the selected concentrations were prepared by diluting a stock solution, which was prepared by an adequate method depending on the physicochemical properties of the test chemicals, for example, by simply mixing the test chemical in dilution water by stirring and/or sonicating for an appropriate time or by using a solid–liquid saturator. In the two laboratories, flow‐through exposure systems, in which a series of test solutions at the target concentrations can be continuously prepared and delivered to test vessels at controlled flow rates (Haselman et al., [2016]; Watanabe et al., [2017]), were used for the exposure experiments.
# In the FSTRA, three mature adult males and females in a test vessel were exposed together to the test chemicals in flow‐through condition for 3 weeks. In all the assays, each treatment group, including the DWC group, contained four replicate tanks. During the exposure period, the fish were fed a sufficient amount of live brine shrimp nauplii (newly hatched Artemia sp.) for daily spawning ad libitum. Fecal material in the tanks was appropriately removed by siphoning after feeding. Water temperature of test solutions was recorded for at least one vessel in each treatment and control group every day and for all vessels at least once a week. Furthermore, dissolved oxygen and pH of test solutions were measured for all test vessels at least once a week. Mortality and abnormal behavior and appearance in the fish exposed to test chemicals were daily observed, and any fish that died were removed from the tank as soon as possible. To assess the reproductive status, all eggs females spawned were collected every day. At the completion of the chemical exposure, surviving fish in each tank were sampled.
# The eggs females released on the bottom of the tank were collected by siphoning, and the egg clutches still on female abdomen were carefully picked from the body of the females captured using a small net. All the eggs collected were microscopically observed and separately counted for fertilized and unfertilized.
# medaka ARβ (mARβ) = medaka ARβ (mARβ) (Oryzias latipes, UniProt D1MV73); assay: Medaka ARβ reporter gene assay (RGA), antagonist assay with 50 nM 11KT, HepG2 cells; type: cell-based, Japanese medaka (Oryzias latipes); conditions: 50 nM 11KT-induced mARβ activity
# Method: To support interpretation of the biological effects observed in the FSTRA studies, in vitro RGAs using medaka Esr1 (mEsr1) and medaka ARβ (mARβ) were performed for the 16 test chemicals. In the present study, Esr1 and ARβ, which are ancestral subtypes among Esrs and ARs in Japanese medaka, were selected based on the phylogenetical analyses of Esr and AR with each receptor RGAs (Ogino et al., [2016], [2018]; Tohyama et al., [2015]).
# The mARβ RGA in which the agonist and the antagonist assays were performed as same as the mEsr1 RGA was carried out according to the methods previously reported by Lange et al. ([2015]). For the assays, human liver cancer cell line, HepG2, was used as the host cells, and mARβ/pcDNA3.1, MMTV‐Luc, and pRL‐TK‐Rlu were used as mARβ expression vector, reporter vector, and internal control vector, respectively. Other materials and methods, for example, operating procedure, reagents, and incubation conditions, were almost the same as the mEsr1 RGA previously described beside that 11KT (Sigma‐Aldrich, purity 99.0%), a main AR ligand in fish, was competitively spiked at 50 nM into the test medium with test chemicals in antagonist assay. In the agonist and the antagonist assays, 11KT and 2‐hydroxyflutamide (2HFLT; Sigma‐Aldrich, purity 98.5%) were used as positive controls, respectively.
# Effect concentrations, that is, EC50 (a half maximal effective concentration) in the agonist assay and IC50 (a half maximal inhibitory concentration) in the antagonist assay, were estimated by nonlinear curve fitting (e.g., three parameters logistic regression curve) using GraphPad Prism (GraphPad Software Inc., La Jolla, CA, USA).
# fathead minnow = test system: fathead minnow; design: method as in Panter et al. (2004); conditions: 21-day exposure; ref Panter et al. (2004); cited from earlier work
# medaka ARβ (mARβ), sequence (D1MV73 entry or part of it): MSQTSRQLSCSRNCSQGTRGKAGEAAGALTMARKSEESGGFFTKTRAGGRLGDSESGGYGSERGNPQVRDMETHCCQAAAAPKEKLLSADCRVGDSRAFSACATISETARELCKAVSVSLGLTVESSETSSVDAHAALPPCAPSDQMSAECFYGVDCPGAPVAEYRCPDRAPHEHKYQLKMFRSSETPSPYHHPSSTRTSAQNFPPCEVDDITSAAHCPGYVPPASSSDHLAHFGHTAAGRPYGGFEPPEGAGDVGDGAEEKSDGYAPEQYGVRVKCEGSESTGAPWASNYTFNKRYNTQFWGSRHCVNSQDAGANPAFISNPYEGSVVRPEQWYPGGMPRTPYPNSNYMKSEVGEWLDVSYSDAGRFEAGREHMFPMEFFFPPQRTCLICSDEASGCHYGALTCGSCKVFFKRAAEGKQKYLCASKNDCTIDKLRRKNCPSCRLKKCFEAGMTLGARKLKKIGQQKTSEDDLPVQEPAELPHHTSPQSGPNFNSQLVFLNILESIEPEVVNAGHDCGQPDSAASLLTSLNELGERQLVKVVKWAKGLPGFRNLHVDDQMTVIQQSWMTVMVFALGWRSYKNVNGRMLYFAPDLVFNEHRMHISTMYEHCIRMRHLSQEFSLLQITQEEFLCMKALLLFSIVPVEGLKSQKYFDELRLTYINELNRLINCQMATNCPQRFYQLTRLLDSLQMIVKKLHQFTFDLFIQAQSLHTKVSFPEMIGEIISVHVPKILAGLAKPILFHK
smiles,measurement,setting,value
"CC(C)C(=O)Nc1ccc([N+](=O)[O-])c(C(F)(F)F)c1 [FLT, Flutamide]",Fertility rate (%),[1]; measured conc. 119 μg/L,94%
same,Mortality (%) Female,[1]; measured conc. 119 μg/L,0%
same,Mortality (%) Male,[1]; measured conc. 119 μg/L,0%
same,Number of fertilized eggs,[1]; measured conc. 119 μg/L,25
same,Number of total eggs,[1]; measured conc. 119 μg/L,26 ± 2.3 /female/day
same,SSC Female,[1]; measured conc. 119 μg/L,0 ± 0
same,SSC Male,[1]; measured conc. 119 μg/L,86 ± 18
same,VTG (ng/mg of liver) Female,[1]; measured conc. 119 μg/L,908 ± 255 ng/mg of liver
same,VTG (ng/mg of liver) Male,[1]; measured conc. 119 μg/L,47.9 ± 41.8 ng/mg of liver
same,GSI Female,[1]; measured conc. 119 μg/L,10.1%
same,GSI Male,[1]; measured conc. 119 μg/L,1.10%
same,HSI Female,[1]; measured conc. 119 μg/L,4.2%
same,HSI Male,[1]; measured conc. 119 μg/L,2.0%
same,Length Female,[1]; measured conc. 119 μg/L,34.2 mm
same,Length Male,[1]; measured conc. 119 μg/L,35.6 mm
same,Weight Female,[1]; measured conc. 119 μg/L,426 mg
same,Weight Male,[1]; measured conc. 119 μg/L,445 mg
same,Fertility rate (%),[1]; measured conc. 248 μg/L,94%
same,Mortality (%) Female,[1]; measured conc. 248 μg/L,0%
same,Mortality (%) Male,[1]; measured conc. 248 μg/L,0%
same,Number of fertilized eggs,[1]; measured conc. 248 μg/L,26
same,Number of total eggs,[1]; measured conc. 248 μg/L,28 ± 3.1 /female/day
same,SSC Female,[1]; measured conc. 248 μg/L,0 ± 0
same,SSC Male,[1]; measured conc. 248 μg/L,82 ± 15
same,VTG (ng/mg of liver) Female,[1]; measured conc. 248 μg/L,970 ± 200 ng/mg of liver
same,VTG (ng/mg of liver) Male,[1]; measured conc. 248 μg/L,35.8 ± 41.5 ng/mg of liver
same,GSI Female,[1]; measured conc. 248 μg/L,10.9%
same,GSI Male,[1]; measured conc. 248 μg/L,1.10%
same,HSI Female,[1]; measured conc. 248 μg/L,4.6%
same,HSI Male,[1]; measured conc. 248 μg/L,2.1%
same,Length Female,[1]; measured conc. 248 μg/L,33.7 mm
same,Length Male,[1]; measured conc. 248 μg/L,35.0 mm
same,Weight Female,[1]; measured conc. 248 μg/L,428 mg
same,Weight Male,[1]; measured conc. 248 μg/L,394 mg
same,Fertility rate (%),[1]; measured conc. 497 μg/L,96%
same,Mortality (%) Female,[1]; measured conc. 497 μg/L,0%
same,Mortality (%) Male,[1]; measured conc. 497 μg/L,0%
same,Number of fertilized eggs,[1]; measured conc. 497 μg/L,27
same,Number of total eggs,[1]; measured conc. 497 μg/L,28 ± 3.0 /female/day
same,SSC Female,[1]; measured conc. 497 μg/L,0 ± 0
same,SSC Male,[1]; measured conc. 497 μg/L,82 ± 16
same,VTG (ng/mg of liver) Female,[1]; measured conc. 497 μg/L,812 ± 159 ng/mg of liver
same,VTG (ng/mg of liver) Male,[1]; measured conc. 497 μg/L,38.7 ± 44.8 ng/mg of liver
same,GSI Female,[1]; measured conc. 497 μg/L,10.3%
same,GSI Male,[1]; measured conc. 497 μg/L,1.20%
same,HSI Female,[1]; measured conc. 497 μg/L,4.8%
same,HSI Male,[1]; measured conc. 497 μg/L,1.9%
same,Length Female,[1]; measured conc. 497 μg/L,34.3 mm
same,Length Male,[1]; measured conc. 497 μg/L,35.9 mm
same,Weight Female,[1]; measured conc. 497 μg/L,470 mg
same,Weight Male,[1]; measured conc. 497 μg/L,429 mg
same,Fertility rate (%),[1]; measured conc. 925 μg/L,93%
same,Mortality (%) Female,[1]; measured conc. 925 μg/L,0%
same,Mortality (%) Male,[1]; measured conc. 925 μg/L,0%
same,Number of fertilized eggs,[1]; measured conc. 925 μg/L,27
same,Number of total eggs,[1]; measured conc. 925 μg/L,29 ± 3.1 /female/day
same,SSC Female,[1]; measured conc. 925 μg/L,0 ± 0
same,SSC Male,[1]; measured conc. 925 μg/L,93 ± 16
same,VTG (ng/mg of liver) Female,[1]; measured conc. 925 μg/L,830 ± 131 ng/mg of liver
same,VTG (ng/mg of liver) Male,[1]; measured conc. 925 μg/L,50.8 ± 53.8 ng/mg of liver
same,GSI Female,[1]; measured conc. 925 μg/L,11.5%
same,GSI Male,[1]; measured conc. 925 μg/L,1.10%
same,HSI Female,[1]; measured conc. 925 μg/L,4.5%
same,HSI Male,[1]; measured conc. 925 μg/L,2.0%
same,Length Female,[1]; measured conc. 925 μg/L,34.2 mm
same,Length Male,[1]; measured conc. 925 μg/L,35.8 mm
same,Weight Female,[1]; measured conc. 925 μg/L,453 mg
same,Weight Male,[1]; measured conc. 925 μg/L,416 mg
same,"effect on fecundity (number of total eggs), in words","[1]; within the test concentrations, 21-day exposure",No effect
same,mARβ antagonist activity (in words),medaka ARβ (mARβ),inhibited
same,concentration that significantly reduced the number of nuptial tubercles in males,fathead minnow,938.6 µg/L
